Key:
rats = conditions: rat, in vivo; cited from earlier work
[1] = cited from earlier work
skin = assay: Preliminary safety evaluation of topical exposure (SLS or UVB provoked skin), methodological study on humans; assay type: in vivo, human
Description: Skin irritation and dermatitis is a common problem among health care professionals due to frequent washing. We have utilized two well-established skin irritation models to investigate the effect of topically administered uridine or isomalt on skin physiology including measurement of dermal blood flow. Isomalt consists of 1,6-glucopyranosyl-D-sorbitol (GPS, isomaltitol) and 1,1-glucopyranosyl-D-mannitol (GPM) in a 1:1 ratio. The methodological study involves the study of various physiological parameters, such as dermal blood flow and visual assessment of erythema, subsequent to provocation by either exposure to UVB light or Sodium Lauryl Sulphate (SLS) and the effects of isomalt and uridine on these parameters. Only a very small area of the skin was exposed to the irritants UVB or SLS. The methodological study has been approved by the Medical Products Agency, Sweden and the Regional Ethical Review Board, Linköping, Sweden.
UVB provocation with a divergent beam produces a circular, radially fading skin erythema, the diameter of which corresponds to the minimal erythemal dose. […] SLS, which is a detergent, creates a local skin irritation mainly by disturbing the skins barrier function. A methodological study has been performed, both to evaluate the effects of uridine or isomalt on skin UVB-induced erythema and SLS irritation. […]

In the case of OC[C@H](O)[C@@H](O)[C@H](O)[C@H](O)CO[C@H]1O[C@H](CO)[C@@H](O)[C@H](O)[C@H]1O [isomaltitol, 6-O-α-D-glucopyranosyl-D-sorbitol], the toxic effect (rats) is listed as “doesn't seem to have any toxic effect”, the “rise in blood glucose and insulin levels” value ([1]; compared to sugars and other carbohydrates) is listed as “only a very small rise” and the absorption ([1]; in vivo) is listed as “very slow and limited”.
For O=c1ccn([C@@H]2O[C@H](CO)[C@@H](O)[C@H]2O)c(=O)[nH]1 [uridine], the “untoward effects such as exacerbated skin irritation or itching related to the exposure” value (skin; saturated solution, topical exposure for 24 hours, all individuals) was “no untoward effects”.
For isomalt, the “untoward effects such as exacerbated skin irritation or itching related to the exposure” value (skin; in vivo) was “no untoward effects”.

Reference: patent US20080004235A1, “TOPICAL COMPOSITIONS COMPRISING ONE OR MORE OF 4-THIOURIDINE, ISOMALTITOL AND URIDINE” (priority 2005, published 2008)
